Assays:
Assay type in all cases: cell-based
human TLR7 = target: T1, human TLR7 (Homo sapiens, UniProt Q9NYK1); test: TLR7 inhibition reporter assay (HEK-Blue SEAP); details: HEK-Blue cells overexpressing human TLR7, stimulated with gardiquimod 7.5 μM, 22 hour incubation
T1 construct: host or cells: HEK-Blue cells
T1 sequence (Q9NYK1 27-1049): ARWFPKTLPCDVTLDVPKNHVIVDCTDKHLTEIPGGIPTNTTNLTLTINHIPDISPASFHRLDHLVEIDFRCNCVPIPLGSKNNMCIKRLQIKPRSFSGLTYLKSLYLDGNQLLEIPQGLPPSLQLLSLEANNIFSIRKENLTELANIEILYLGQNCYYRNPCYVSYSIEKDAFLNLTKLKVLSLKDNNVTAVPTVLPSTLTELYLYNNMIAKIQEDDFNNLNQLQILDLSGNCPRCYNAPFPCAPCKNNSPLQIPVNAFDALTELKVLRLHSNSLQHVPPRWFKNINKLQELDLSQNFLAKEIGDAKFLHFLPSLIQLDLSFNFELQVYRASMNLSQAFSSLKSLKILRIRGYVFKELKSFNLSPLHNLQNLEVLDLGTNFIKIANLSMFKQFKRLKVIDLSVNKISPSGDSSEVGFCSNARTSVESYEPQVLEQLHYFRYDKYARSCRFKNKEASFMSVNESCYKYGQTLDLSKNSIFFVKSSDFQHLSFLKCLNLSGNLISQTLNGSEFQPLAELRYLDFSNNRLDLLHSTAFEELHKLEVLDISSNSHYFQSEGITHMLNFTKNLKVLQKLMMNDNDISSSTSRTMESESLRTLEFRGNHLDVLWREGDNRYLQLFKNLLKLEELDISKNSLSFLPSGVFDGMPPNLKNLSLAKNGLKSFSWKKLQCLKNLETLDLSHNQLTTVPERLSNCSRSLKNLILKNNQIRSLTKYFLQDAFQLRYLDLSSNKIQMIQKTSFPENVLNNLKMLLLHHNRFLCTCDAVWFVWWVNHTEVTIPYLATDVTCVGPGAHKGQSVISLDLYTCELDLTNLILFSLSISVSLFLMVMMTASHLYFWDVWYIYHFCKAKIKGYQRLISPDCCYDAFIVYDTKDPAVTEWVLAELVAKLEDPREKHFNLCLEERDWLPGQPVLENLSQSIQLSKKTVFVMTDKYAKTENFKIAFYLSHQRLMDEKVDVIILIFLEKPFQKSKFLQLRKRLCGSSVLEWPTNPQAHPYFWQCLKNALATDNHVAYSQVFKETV
Method in brief: (§1)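 HEK-Blue cells overexpressing human TLR7, TLR8 or TLR9 with an NF-κB/AP-1-driven SEAP reporter were pre-treated 30 min at room temperature with compound (0.05 nM to 50 μM), then stimulated with gardiquimod 7.5 μM (TLR7), R848 15.9 μM (TLR8) or ODN2006 5 nM (TLR9). SEAP measured after 22 h at 37° C; inhibition normalized between agonist-plus-DMSO and reference-inhibitor wells.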

human TLR8 = target: T2, human TLR8 (Homo sapiens, UniProt Q9NR97); test: TLR8 inhibition reporter assay (HEK-Blue SEAP); details: HEK-Blue cells overexpressing human TLR8, stimulated with R848 15.9 μM, 22 hour incubation
T2 construct: host or cells: HEK-Blue cells
T2 sequence (Q9NR97 27-1041): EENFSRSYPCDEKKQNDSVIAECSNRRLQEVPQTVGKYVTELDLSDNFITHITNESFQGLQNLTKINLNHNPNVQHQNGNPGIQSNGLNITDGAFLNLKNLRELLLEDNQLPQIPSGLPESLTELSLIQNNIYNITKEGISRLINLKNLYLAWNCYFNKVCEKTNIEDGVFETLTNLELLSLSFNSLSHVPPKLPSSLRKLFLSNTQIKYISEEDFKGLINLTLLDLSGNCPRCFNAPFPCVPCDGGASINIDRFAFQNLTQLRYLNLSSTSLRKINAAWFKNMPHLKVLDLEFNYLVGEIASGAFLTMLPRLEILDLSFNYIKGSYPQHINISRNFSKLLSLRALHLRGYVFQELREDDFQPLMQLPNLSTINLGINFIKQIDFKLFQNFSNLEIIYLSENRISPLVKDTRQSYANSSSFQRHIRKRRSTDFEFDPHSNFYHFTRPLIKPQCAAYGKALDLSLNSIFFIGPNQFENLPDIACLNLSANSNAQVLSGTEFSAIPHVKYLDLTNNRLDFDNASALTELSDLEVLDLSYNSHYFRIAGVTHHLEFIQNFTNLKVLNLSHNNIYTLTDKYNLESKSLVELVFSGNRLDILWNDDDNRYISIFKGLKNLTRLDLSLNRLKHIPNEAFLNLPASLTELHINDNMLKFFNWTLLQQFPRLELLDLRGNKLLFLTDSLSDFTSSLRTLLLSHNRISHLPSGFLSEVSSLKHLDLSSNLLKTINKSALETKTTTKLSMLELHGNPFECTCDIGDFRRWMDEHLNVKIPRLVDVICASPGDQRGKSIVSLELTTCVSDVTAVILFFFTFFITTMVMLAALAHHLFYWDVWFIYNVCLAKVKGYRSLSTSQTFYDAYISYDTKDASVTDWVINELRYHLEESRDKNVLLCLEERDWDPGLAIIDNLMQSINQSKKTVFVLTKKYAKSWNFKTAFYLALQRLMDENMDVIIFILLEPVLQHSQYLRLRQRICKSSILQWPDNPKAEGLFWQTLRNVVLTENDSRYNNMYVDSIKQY
Method in brief: as §1

human TLR9 = target: T3, human TLR9 (Homo sapiens, UniProt Q9NR96); test: TLR9 inhibition reporter assay (HEK-Blue SEAP); details: HEK-Blue cells overexpressing human TLR9, stimulated with ODN2006 5 nM, 22 hour incubation
T3 construct: host or cells: HEK-Blue cells
T3 sequence (Q9NR96 26-1032): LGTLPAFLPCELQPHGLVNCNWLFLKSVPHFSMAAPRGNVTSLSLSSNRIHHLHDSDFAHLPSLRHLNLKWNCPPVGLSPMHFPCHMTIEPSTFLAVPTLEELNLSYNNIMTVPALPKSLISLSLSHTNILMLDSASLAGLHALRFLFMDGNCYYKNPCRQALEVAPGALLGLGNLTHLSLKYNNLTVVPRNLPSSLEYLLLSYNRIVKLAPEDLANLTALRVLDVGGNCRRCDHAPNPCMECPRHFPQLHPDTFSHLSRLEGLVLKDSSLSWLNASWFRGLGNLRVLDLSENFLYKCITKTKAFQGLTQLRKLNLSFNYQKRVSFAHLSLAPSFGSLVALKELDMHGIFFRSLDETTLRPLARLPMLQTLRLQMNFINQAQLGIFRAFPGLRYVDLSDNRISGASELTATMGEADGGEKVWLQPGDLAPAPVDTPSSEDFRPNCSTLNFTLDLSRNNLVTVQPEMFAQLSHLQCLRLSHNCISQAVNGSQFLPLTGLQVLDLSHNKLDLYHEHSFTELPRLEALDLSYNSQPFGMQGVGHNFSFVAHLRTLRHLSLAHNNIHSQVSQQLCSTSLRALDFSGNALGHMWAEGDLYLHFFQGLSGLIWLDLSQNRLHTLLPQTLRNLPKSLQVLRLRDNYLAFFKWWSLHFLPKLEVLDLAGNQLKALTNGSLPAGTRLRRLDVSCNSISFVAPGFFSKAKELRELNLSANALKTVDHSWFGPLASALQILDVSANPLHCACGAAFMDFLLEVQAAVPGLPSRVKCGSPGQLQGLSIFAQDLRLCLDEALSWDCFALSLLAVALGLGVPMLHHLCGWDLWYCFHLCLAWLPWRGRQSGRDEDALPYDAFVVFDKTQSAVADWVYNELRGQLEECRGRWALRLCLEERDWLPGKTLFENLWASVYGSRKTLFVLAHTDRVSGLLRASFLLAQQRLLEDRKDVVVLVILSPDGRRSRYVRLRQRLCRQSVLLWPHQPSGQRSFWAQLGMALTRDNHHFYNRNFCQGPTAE
Method in brief: as §1

SMILES	IC50 (human TLR7)	IC50 (human TLR8)	IC50 (human TLR9)
CCc1cc(-c2cc(C)c3ncnn3c2)cc2[nH]nc(OC3CCC(N(C)C)CC3)c12 (single isomer, unassigned) [Example 168, 4-((4-ethyl-6-(8-methyl-[1,2,4]triazolo[1,5-a]pyridin-6-yl)-1H-indazol-3-yl)oxy)-N,N-dimethylcyclohexan-1-amine]	1.9 nM	1.6 nM	2.57 µM
Cc1cc(-c2cc3[nH]nc(N4CCN(C5CCOCC5)CC4)c3cc2C(C)C)cn2ncnc12 [Example 207, 6-(5-isopropyl-3-(4-(tetrahydro-2H-pyran-4-yl)piperazin-1-yl)-1H-indazol-6-yl)-8-methyl-[1,2,4]triazolo[1,5-a]pyridine]	6.5 nM	0.15 nM	33.3 µM
CCc1cc2c(C3CCC(NC4CC4)CC3)n[nH]c2cc1-c1cc(C)c2ncnn2c1 (single isomer, unassigned) [Example 98, N-cyclopropyl-4-(5-ethyl-6-(8-methyl-[1,2,4]triazolo[1,5-a]pyridin-6-yl)-1H-indazol-3-yl)cyclohexan-1-amine]	2.5 nM	0.2 nM	6.57 µM
Cc1cc2c(C3CCC(N(C)C)CC3)n[nH]c2cc1-c1cc(C)c2ncnn2c1 (single isomer, unassigned) [Example 4, N,N-dimethyl-4-(5-methyl-6-(8-methyl-[1,2,4]triazolo[1,5-a]pyridin-6-yl)-1H-indazol-3-yl)cyclohexan-1-amine]	19.9 nM	0.7 nM	2.82 µM
CCc1cc2c(C3CCC(NCCS(C)(=O)=O)CC3)n[nH]c2cc1-c1cc(C)c2ncnn2c1 (single isomer, unassigned) [Example 99, 4-(5-ethyl-6-(8-methyl-[1,2,4]triazolo[1,5-a]pyridin-6-yl)-1H-indazol-3-yl)-N-(2-(methylsulfonyl)ethyl)cyclohexan-1-amine]	0.9 nM	0.1 nM	14 µM
Cc1cc2c(C3CCCNC3)n[nH]c2cc1-c1cn2ncnc2c(C)c1C (stereo not drawn) [Example 48, 7,8-dimethyl-6-(5-methyl-3-(piperidin-3-yl)-1H-indazol-6-yl)-[1,2,4]triazolo[1,5-a]pyridine]	47.6 nM	2.5 nM	2.31 µM

The remaining lines, values ahead:

IC50 (human TLR7)	IC50 (human TLR8)	IC50 (human TLR9)	SMILES
5.6 nM	0.2 nM	23.5 µM	CCc1cc2c(C3CCN(CCC(F)(F)F)CC3)n[nH]c2cc1-c1cc(C)c2ncnn2c1 [Example 108, 6-(5-ethyl-3-(1-(3,3,3-trifluoropropyl)piperidin-4-yl)-1H-indazol-6-yl)-8-methyl-[1,2,4] triazolo[1,5-a]pyridine]
1.2 nM	0.1 nM	6.25 µM	Cc1cc(-c2cc3[nH]nc(C4CCC(N5CCC5)CC4)c3cc2C(C)C)cn2ncnc12 (single isomer, unassigned) [Example 139, 6-(3-(4-(azetidin-1-yl)cyclohexyl)-5-isopropyl-1H-indazol-6-yl)-8-methyl-[1,2,4]triazolo[1,5-a]pyridine]
12.5 nM	3.8 nM	4.92 µM	Cc1cc(-c2cc(C)c3ncnn3c2)cc2[nH]nc(OC3CCN(CC(=O)N(C)C)CC3)c12 [Example 176, N,N-dimethyl-2-(4-((4-methyl-6-(8-methyl-[1,2,4]triazolo[1,5-a]pyridin-6-yl)-1H-indazol-3-yl)oxy)piperidin-1-yl)acetamide]
13.3 nM	3 nM	5.73 µM	Cc1cc2c(OC3CCN(C(=O)CN(C)C)CC3)n[nH]c2cc1-c1cc(C)c2ncnn2c1 [Example 170, 2-(dimethylamino)-1-(4-((5-methyl-6-(8-methyl-[1,2,4]triazolo[1,5-a]pyridin-6-yl)-1H-indazol-3-yl)oxy)piperidin-1-yl)ethan-1-one]
5.6 nM	0.2 nM	12.2 µM	CCc1cc2c(C3CCN(CC(C)(C)O)CC3)n[nH]c2cc1-c1cc(C)c2ncnn2c1 [Example 101, 1-(4-(5-ethyl-6-(8-methyl-[1,2,4]triazolo[1,5-a]pyridin-6-yl)-1H-indazol-3-yl)piperidin-1-yl)-2-methylpropan-2-ol]
2.7 nM	0.2 nM	17.2 µM	CCc1cc2c(C3CCN(CC(N)=O)CC3)n[nH]c2cc1-c1cc(C)c2ncnn2c1 [Example 92, 2-(4-(5-ethyl-6-(8-methyl-[1,2,4]triazolo[1,5-a]pyridin-6-yl)-1H-indazol-3-yl)piperidin-1-yl)acetamide]
7.2 nM	0.2 nM	39.8 µM	CCc1cc2c(C3CCN(CCC#N)CC3)n[nH]c2cc1-c1cc(C)c2ncnn2c1 [Example 106, 3-(4-(5-ethyl-6-(8-methyl-[1,2,4]triazolo[1,5-a]pyridin-6-yl)-1H-indazol-3-yl)piperidin-1-yl)propanenitrile]
